From PubChem BioAssay (NCI)
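Interpolation was linear, between the two tested concentrations surrounding the appropriate level; five concentrations were tested over 48 hours in 96-well plates. GI50 marks 50% less growth. Definition used: TGI = concentration required for complete inhibition of growth.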

Key:
Assay in all cases: NCI tumour cell line growth inhibition, 48 h
NCI-H460 lung = test system: NCI-H460 lung
NCI-H522 lung = test system: NCI-H522 lung
NCI/ADR-RES ovarian = test system: NCI/ADR-RES ovarian
OVCAR-3 ovarian = test system: OVCAR-3 ovarian
OVCAR-4 ovarian = test system: OVCAR-4 ovarian
OVCAR-5 ovarian = test system: OVCAR-5 ovarian
OVCAR-8 ovarian = test system: OVCAR-8 ovarian
RPMI-8226 leukemia = test system: RPMI-8226 leukemia
RXF 393 renal = test system: RXF 393 renal
SF-268 CNS = test system: SF-268 CNS
SF-295 CNS = test system: SF-295 CNS
SF-539 CNS = test system: SF-539 CNS
SK-MEL-2 melanoma = test system: SK-MEL-2 melanoma
SK-MEL-28 melanoma = test system: SK-MEL-28 melanoma
SK-MEL-5 melanoma = test system: SK-MEL-5 melanoma
SK-OV-3 ovarian = test system: SK-OV-3 ovarian
SN12C renal = test system: SN12C renal
SNB-19 CNS = test system: SNB-19 CNS
SNB-75 CNS = test system: SNB-75 CNS
SR leukemia = test system: SR leukemia
SW-620 colon = test system: SW-620 colon
TK-10 renal = test system: TK-10 renal
U251 CNS = test system: U251 CNS
UACC-257 melanoma = test system: UACC-257 melanoma
UACC-62 melanoma = test system: UACC-62 melanoma
UO-31 renal = test system: UO-31 renal

C[C@H]1[C@H](C)CC[C@]2(C(=O)O)CC[C@]3(C)C(=CC[C@@H]4[C@@]5(C)CC[C@H](OC(=O)/C=C\c6ccc(O)cc6)C(C)(C)[C@@H]5CC[C@]43C)[C@H]12
TGI (NCI-H460 lung): 10.9 µM | GI50 (NCI-H522 lung): 5.58 µM | TGI (NCI-H522 lung): > 100 µM | GI50 (NCI/ADR-RES ovarian): 3.02 µM | TGI (NCI/ADR-RES ovarian): 15 µM | GI50 (OVCAR-3 ovarian): 3.05 µM | TGI (OVCAR-3 ovarian): 21.2 µM | GI50 (OVCAR-4 ovarian): 10.6 µM | TGI (OVCAR-4 ovarian): 28.8 µM | GI50 (OVCAR-5 ovarian): 12.3 µM | TGI (OVCAR-5 ovarian): 27 µM | GI50 (OVCAR-8 ovarian): 2.6 µM | TGI (OVCAR-8 ovarian): 9.1 µM | GI50 (RPMI-8226 leukemia): 1.8 µM | TGI (RPMI-8226 leukemia): 10.3 µM | GI50 (RXF 393 renal): 1.52 µM | TGI (RXF 393 renal): 6.94 µM | GI50 (SF-268 CNS): 3.23 µM | TGI (SF-268 CNS): 14.8 µM | GI50 (SF-295 CNS): 3.03 µM | TGI (SF-295 CNS): 31.2 µM | GI50 (SF-539 CNS): 2.9 µM | TGI (SF-539 CNS): 13.5 µM | GI50 (SK-MEL-2 melanoma): 28.9 µM | TGI (SK-MEL-2 melanoma): > 100 µM | GI50 (SK-MEL-28 melanoma): 18 µM | TGI (SK-MEL-28 melanoma): 57 µM | GI50 (SK-MEL-5 melanoma): 3.85 µM | TGI (SK-MEL-5 melanoma): 14.3 µM | GI50 (SK-OV-3 ovarian): 11.9 µM | TGI (SK-OV-3 ovarian): 26.5 µM | GI50 (SN12C renal): 1.67 µM | TGI (SN12C renal): 6.76 µM | GI50 (SNB-19 CNS): 10.5 µM | TGI (SNB-19 CNS): 31.1 µM | GI50 (SNB-75 CNS): 22.3 µM | TGI (SNB-75 CNS): 45.9 µM | GI50 (SR leukemia): 2.69 µM | TGI (SR leukemia): 6.66 µM | GI50 (SW-620 colon): 17.6 µM | TGI (SW-620 colon): 33.7 µM | GI50 (TK-10 renal): 1.15 µM | TGI (TK-10 renal): 4.66 µM | GI50 (U251 CNS): 2 µM | TGI (U251 CNS): 9.41 µM | GI50 (UACC-257 melanoma): 1.46 µM | TGI (UACC-257 melanoma): 8.49 µM | GI50 (UACC-62 melanoma): 10.9 µM | TGI (UACC-62 melanoma): 22.8 µM | GI50 (UO-31 renal): 13.6 µM | TGI (UO-31 renal): > 100 µM
